Test results taken from patent publication US4057530A, “2-Phenyl-indole derivatives and process for preparing the same” (priority 1974, dated 1977).

Assays:
[1] = Static thermostability of stabilized resin, simplified method (GARDNER sub-scale), Compound A; conditions: 210° C; for Colouration given to the polymer: 0 and 3 min
Protocol: (§1) The stabilizing power of the substances of the invention was studied from two points of view:
(§2) These studies were performed with six different formulae of vinyl resins (hereinafter referred to as Compounds).
(§3) The different compounds were mixed and calendered in a mixer of which the cylinders were heated to 160° C. The rigid sheets so obtained were then heated in an oven to a temperature between 180° C and 215° C, until incipient carbonization.
(§4) A stove with rotating drums, ventilated and equipped with a thermostat was used for this operation. In the trials described hereunder, the behaviour of a sheet containing the stabilizer to be tested was compared to that of a sheet of the same formula but containing 2-phenyl-indole as stabilizer.
2. It is also possible to use a simplified method which is more rapid and with which valid results are also obtained: a reference scale is drawn up with sheets of thermally treated polyvinyl chloride, of which the colourations have been definitely determined in GARDNER degrees as above. A GARDNER sub-scale is thus obtained in polyvinyl chloride sheets which can be directly compared to the sheets to be tested without using the comparator.
Finally, trials were carried out with Stabilizers 15, 16 and 17 and with 2-phenyl-indole. Compound A was used and the temperature was 210° C.

[2] = Acute toxicity by oral route in mice (LD50); type: in vivo; conditions: mouse, in vivo, gummy suspension
Protocol: (§5) The study of the acute toxicity of the stabilizers listed below was carried out by determining the dose of substance which provoked the death of 50% of the treated animals (LD50). A gummy suspension of the substance under study was administered by oral route to groups of at least ten mice and the following results were observed: […]

mice = assay: Acute toxicity by oral route in mice (LD50); type: in vivo; conditions: LD50 study
Protocol: as §5

[3] = Static thermostability of stabilized resin, GARDNER Scale Comparator, Compound A; conditions: 185° C
Protocol: as §1, §2, §3, §4
1. The colouration of the sheets, of which samples were removed from the stove at fixed intervals was compared to a standard scale of colouration, known as the GARDNER Scale, and expressed in terms of the reference figures of the GARDNER Scale.
Comparisons were made with a GARDNER Scale Comparator which contains 18 filters of coloured glass and which offers the possibility of observing by transparency and in a limited field of view both the sheet and the reference filters.

Row | Compound | Static thermostability compared with 2-phenyl-indole [1] | Colouration of sheet (GARDNER sub-scale) ([1]; 0 min) [GARDNER degrees] | Colouration of sheet (GARDNER sub-scale) ([1]; 3 min) [GARDNER degrees] | Colouration of sheet (GARDNER sub-scale) ([1]; 6 min) [GARDNER degrees] | Colouration of sheet (GARDNER sub-scale) ([1]; 9 min) [GARDNER degrees] | Colouration of sheet (GARDNER sub-scale) ([1]; 12 min) [GARDNER degrees] | Colouration of sheet (GARDNER sub-scale) ([1]; 15 min) | Colouration of sheet (GARDNER sub-scale) ([1]; 18 min) | further results
1 | Sc1ccc(-c2cc3ccccc3[nH]2)cc1 [Stabilizer 1, 2-(4'-mercapto-phenyl)-indole] | superiority of Stabilizer 1 over 2-phenyl-indole | 1 | 2 | 2.5 | 7 | 11 | 12 GARDNER degrees | – | LD50 [2]: > 2000 mg/kg; Toxic symptoms (mice): none
2 | CC(=O)Oc1ccc(-c2cc3ccccc3[nH]2)cc1 [Stabilizer 4, 2-(4'-acetoxy-phenyl)-indole] | – | – | – | – | – | – | – | – | LD50 [2]: > 3000 mg/kg; Toxic symptoms (mice): none
3 | O=C(Oc1ccc(-c2cc3ccccc3[nH]2)cc1)c1ccccc1 [Stabilizer 6, 2-(4'-benzoyloxy-phenyl)-indole] | – | – | – | – | – | – | – | – | LD50 [2]: > 4000 mg/kg; Toxic symptoms (mice): none
4 | Nc1cccc(-c2cc3ccccc3[nH]2)c1 [Stabilizer 11, 2-(3'-amino-phenyl)-indole] | developed less rapidly than that due to 2-phenyl-indole | 3 | 3 | 4 | 5 | 10 | 12 GARDNER degrees | burnt | Colouration given to the polymer [1]: relatively intense yellow colouration
5 | O=C(O)COc1ccc(-c2cc3ccccc3[nH]2)cc1 [Stabilizer 12, 2-(4'-carboxymethoxy-phenyl)-indole] | developed less rapidly than those due to 2-phenyl-indole | 2 | 2 | 3 | – | – | brown | burnt | –
6 | CCOC(=O)COc1ccc(-c2cc3ccccc3[nH]2)cc1 [Stabilizer 13, 2-(4'-carbethoxymethoxy-phenyl)-indole] | markedly superior to 2-phenyl-indole | 2 | 2 | 3 | 3 | 9 | 11 GARDNER degrees | burnt | –
7 | CC(=O)Nc1ccc(-c2cc3ccccc3[nH]2)cc1 [Stabilizer 14, 2-(4'-N-acetylamino-phenyl)-indole] | slightly superior to 2-phenyl-indole | 2 | 2 | 3 | 4 | 8 | 12 GARDNER degrees | burnt | –
8 | CC(C)Sc1ccc(-c2cc3ccccc3[nH]2)cc1 [Stabilizer 17, 2-(4'-isopropylthio-phenyl)-indole] | very rapidly found to be superior to 2-phenyl-indole | 1 | 1 | 2 | 4 | 10 | 13 GARDNER degrees | burnt | Colouration of sheet (GARDNER Scale) ([3]; 0 min): 1 GARDNER degrees; Colouration of sheet (GARDNER Scale) ([3]; 6 min): 1 GARDNER degrees; Colouration of sheet (GARDNER Scale) ([3]; 12 min): 2 GARDNER degrees; Colouration of sheet (GARDNER Scale) ([3]; 18 min): 4 GARDNER degrees; Colouration of sheet (GARDNER Scale) ([3]; 24 min): 9 GARDNER degrees; Colouration of sheet (GARDNER Scale) ([3]; 30 min): 11 GARDNER degrees; Colouration of sheet (GARDNER Scale) ([3]; 36 min): 12 GARDNER degrees; Colouration of sheet (GARDNER Scale) ([3]; 42 min): 13 GARDNER degrees; Colouration of sheet (GARDNER Scale) ([3]; 48 min): 14 GARDNER degrees; Colouration of sheet (GARDNER Scale) ([3]; 54 min): burnt
9 | Nc1ccc(-c2cc3ccccc3[nH]2)cc1 [Stabilizer 22, 2-(4'-amino-phenyl)-indole] | developed less rapidly than that due to 2-phenyl-indole | 2 | 3 | 3 | 4 | 6 | 12 GARDNER degrees | burnt | Colouration given to the polymer [1]: relatively strong yellow colouration
10 | O=C(Nc1ccccc1-c1cc2ccccc2[nH]1)c1ccccc1 [Stabilizer 25, 2-(2'-N-benzoylamino-phenyl)-indole] | slightly superior to 2-phenyl-indole | 2 | 2 | 4 | 6 | 9 | 12 GARDNER degrees | burnt | –
11 | c1ccc(-c2ccc(-c3cc4ccccc4[nH]3)cc2)cc1 [Stabilizer 26, 2(4'-phenyl-phenyl)-indole] | markedly superior to 2-phenyl-indole | 2 | 2 | 3 | 4 | 5 | 12 GARDNER degrees | 14 GARDNER degrees | –
